# Measurements reported in ChEMBL document CHEMBL1133123 (J Med Chem, 2000).
# Columns and labels:
# [1] = target: T1, Alpha-2B adrenergic receptor (Homo sapiens, UniProt P18089); test: Binding affinity towards Alpha-2B adrenergic receptor
# T1 sequence (P18089 whole entry): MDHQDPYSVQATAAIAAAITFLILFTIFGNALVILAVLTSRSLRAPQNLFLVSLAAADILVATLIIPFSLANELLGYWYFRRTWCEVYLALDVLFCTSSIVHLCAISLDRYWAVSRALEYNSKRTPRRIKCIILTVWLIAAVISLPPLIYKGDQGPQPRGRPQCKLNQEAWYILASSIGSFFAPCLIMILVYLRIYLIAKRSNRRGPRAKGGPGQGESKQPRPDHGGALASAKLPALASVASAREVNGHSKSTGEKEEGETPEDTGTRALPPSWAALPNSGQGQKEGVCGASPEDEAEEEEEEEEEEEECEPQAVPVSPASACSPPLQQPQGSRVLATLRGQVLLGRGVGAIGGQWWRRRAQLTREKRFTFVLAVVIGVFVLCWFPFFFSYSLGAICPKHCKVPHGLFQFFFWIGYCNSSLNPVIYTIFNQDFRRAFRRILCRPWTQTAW
# [2] = target: T2, Alpha-2A adrenergic receptor (Homo sapiens, UniProt P08913); test: Binding affinity towards Alpha-2A adrenergic receptor
# T2 sequence (P08913 whole entry): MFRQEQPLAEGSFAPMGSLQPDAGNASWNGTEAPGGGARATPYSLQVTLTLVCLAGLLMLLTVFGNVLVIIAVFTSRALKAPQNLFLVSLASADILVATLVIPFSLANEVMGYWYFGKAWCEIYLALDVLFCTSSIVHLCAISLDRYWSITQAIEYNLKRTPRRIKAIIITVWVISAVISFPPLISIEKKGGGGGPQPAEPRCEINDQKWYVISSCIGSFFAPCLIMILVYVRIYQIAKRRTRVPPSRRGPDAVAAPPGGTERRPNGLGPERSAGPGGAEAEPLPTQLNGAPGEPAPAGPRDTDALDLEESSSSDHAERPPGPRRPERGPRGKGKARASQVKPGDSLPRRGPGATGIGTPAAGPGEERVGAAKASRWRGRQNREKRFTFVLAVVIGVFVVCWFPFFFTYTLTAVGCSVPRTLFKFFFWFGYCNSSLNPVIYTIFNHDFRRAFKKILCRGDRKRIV
# Rattus norvegicus = species on record: Rattus norvegicus; test: Selectivity ratio of alpha1/alpha2d
# [3] = target: T3, Alpha-2A adrenergic receptor (Rattus norvegicus, UniProt P22909); test: Binding affinity towards alpha-2D adrenergic receptor
# T3 sequence (P22909 whole entry): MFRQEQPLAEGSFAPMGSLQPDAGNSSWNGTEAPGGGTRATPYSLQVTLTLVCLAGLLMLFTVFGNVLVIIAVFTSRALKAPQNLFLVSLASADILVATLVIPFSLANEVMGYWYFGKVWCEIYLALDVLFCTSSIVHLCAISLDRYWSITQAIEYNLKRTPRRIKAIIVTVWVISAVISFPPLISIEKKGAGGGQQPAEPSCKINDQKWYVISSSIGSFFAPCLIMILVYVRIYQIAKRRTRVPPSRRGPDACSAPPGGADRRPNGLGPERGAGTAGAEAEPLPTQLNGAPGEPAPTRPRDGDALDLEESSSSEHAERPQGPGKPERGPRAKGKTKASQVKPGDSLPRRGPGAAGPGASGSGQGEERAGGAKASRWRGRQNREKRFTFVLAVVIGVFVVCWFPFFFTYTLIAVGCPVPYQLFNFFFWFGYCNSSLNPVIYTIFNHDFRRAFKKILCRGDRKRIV
# [4] = target: T4, Alpha-2C adrenergic receptor (Homo sapiens, UniProt P18825); test: Binding affinity towards alpha-2C adrenergic receptor
# T4 sequence (P18825 whole entry): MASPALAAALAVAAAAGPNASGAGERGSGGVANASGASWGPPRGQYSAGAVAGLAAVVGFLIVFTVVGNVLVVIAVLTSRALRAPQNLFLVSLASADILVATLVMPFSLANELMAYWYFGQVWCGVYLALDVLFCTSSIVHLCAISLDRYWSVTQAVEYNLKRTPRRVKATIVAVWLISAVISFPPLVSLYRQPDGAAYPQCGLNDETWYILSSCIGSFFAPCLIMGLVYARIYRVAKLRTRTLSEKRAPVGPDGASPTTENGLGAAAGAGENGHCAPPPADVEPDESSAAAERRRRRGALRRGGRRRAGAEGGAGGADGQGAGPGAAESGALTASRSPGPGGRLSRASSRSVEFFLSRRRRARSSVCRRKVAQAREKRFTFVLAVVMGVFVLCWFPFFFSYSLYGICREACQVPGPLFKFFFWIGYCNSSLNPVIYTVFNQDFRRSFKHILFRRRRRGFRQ
# [5] = target: T1, Alpha-2B adrenergic receptor; test: Tested for Binding affinity towards alpha-2B adrenergic receptor
# [6] = target: T5, Alpha-2A adrenergic receptor (Homo sapiens) (UniProt P08913); test: Tested for Binding affinity towards Alpha-2A adrenergic receptor at 1 uM
# T5 sequence (whole entry): T2 sequence (P08913 whole entry)
# [7] = target: T6, Alpha-2C adrenergic receptor (Homo sapiens) (UniProt P18825); test: Tested for Binding affinity towards alpha-2C adrenergic receptor in rat cells at 1 uM; type: cell-based
# T6 sequence (whole entry): T4 sequence (P18825 whole entry)
# [8] = target: T7, Adrenergic receptor alpha-1 (Rattus norvegicus, UniProt P15823+P23944+P43140); test: Tested for Binding affinity towards alpha-1 adrenergic receptor; type: protein assay
# T7 sequence (P15823 whole entry): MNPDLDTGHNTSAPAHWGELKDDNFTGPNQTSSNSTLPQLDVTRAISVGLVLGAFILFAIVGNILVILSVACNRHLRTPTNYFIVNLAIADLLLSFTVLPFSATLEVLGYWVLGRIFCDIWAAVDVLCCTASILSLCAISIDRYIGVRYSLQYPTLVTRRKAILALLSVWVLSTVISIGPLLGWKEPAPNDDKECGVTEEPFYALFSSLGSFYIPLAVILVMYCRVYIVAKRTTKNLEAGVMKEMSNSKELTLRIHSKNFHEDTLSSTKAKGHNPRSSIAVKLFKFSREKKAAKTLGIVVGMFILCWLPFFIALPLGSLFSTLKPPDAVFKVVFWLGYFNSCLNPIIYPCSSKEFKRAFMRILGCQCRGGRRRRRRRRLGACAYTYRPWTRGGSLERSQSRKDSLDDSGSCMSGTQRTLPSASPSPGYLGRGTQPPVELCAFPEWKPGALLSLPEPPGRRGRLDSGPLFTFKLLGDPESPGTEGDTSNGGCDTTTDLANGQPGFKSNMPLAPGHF
# T7 sequence (P23944 whole entry): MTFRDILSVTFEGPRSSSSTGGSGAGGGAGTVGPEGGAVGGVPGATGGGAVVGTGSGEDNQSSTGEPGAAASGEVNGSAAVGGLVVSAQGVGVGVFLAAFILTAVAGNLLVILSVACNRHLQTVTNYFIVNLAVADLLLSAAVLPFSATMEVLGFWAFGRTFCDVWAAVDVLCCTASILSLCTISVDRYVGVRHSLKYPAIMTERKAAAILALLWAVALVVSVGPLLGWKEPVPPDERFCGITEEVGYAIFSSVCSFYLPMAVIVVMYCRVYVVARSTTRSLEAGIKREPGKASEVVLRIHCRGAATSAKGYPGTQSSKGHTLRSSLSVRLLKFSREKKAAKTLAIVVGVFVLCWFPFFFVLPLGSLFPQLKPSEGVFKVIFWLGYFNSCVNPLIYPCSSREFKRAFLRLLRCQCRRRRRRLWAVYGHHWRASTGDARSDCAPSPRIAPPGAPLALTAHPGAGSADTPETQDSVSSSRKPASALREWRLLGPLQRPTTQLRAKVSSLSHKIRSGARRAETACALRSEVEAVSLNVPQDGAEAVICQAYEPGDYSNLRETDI
# T7 sequence (P43140 whole entry): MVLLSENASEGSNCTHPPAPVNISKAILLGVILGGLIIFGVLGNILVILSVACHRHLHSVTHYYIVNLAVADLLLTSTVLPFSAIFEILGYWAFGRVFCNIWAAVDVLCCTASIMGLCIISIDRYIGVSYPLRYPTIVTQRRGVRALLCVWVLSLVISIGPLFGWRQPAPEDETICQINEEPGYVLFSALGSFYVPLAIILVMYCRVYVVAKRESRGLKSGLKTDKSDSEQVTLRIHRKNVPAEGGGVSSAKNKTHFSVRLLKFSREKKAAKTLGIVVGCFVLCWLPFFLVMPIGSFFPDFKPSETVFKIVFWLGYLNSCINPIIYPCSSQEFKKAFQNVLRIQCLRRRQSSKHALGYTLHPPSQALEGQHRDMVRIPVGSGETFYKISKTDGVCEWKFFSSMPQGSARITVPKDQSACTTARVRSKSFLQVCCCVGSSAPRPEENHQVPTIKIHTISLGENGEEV
structure (smiles),measurement,setting,value
c1cc(-c2c[nH]cn2)c2ccsc2c1,Ki,[1],663 nM
same,Ki,[2],277 nM
same,Ratio,Rattus norvegicus,132
Cc1sc(C)c2c1CCC=C2c1c[nH]cn1,Ratio,Rattus norvegicus,11600
C1=C(c2c[nH]cn2)c2ccsc2CC1,Ki,[1],621 nM
same,Ki,[2],254 nM
same,Ratio,Rattus norvegicus,295
Cc1sc(C)c2c1CCC=C2c1cnc[nH]1,Ki,[1],100 nM
same,Ki,[3],8.6 nM
same,Ki,[2],25 nM
same,Ki,[4],26 nM
C1=C(c2cnc[nH]2)c2sccc2CC1,Ki,[5],940 nM
same,Ki,[2],224 nM
C1=C(c2c[nH]cn2)c2sccc2CC1,Ratio,Rattus norvegicus,133
c1nc(C2CCCc3ccsc32)c[nH]1 (stereo not drawn),inhibition,[6],87%
same,inhibition,[7],54%
same,Ratio,Rattus norvegicus,260
Cc1cccc([C@H](C)c2cnc[nH]2)c1C [DEXMEDETOMIDINE],Ki,[3],0.015 nM
Cc1sc(C)c2c1CCCC2c1c[nH]cn1 (stereo not drawn),Ki,[1],141 nM
same,Ki,[2],68 nM
same,Ki,[4],205 nM
same,Ratio,Rattus norvegicus,17
c1nc(C2CCCc3sccc32)c[nH]1 (stereo not drawn),Ki,[1],99 nM
same,Ki,[2],27 nM
same,Ki,[4],172 nM
same,Ratio,Rattus norvegicus,196
Cc1cccc([C@H](C)c2c[nH]cn2)c1C [DEXMEDETOMIDINE],Ki,[8],5 nM
same,Ratio,Rattus norvegicus,333
